Data set [1] concerns the target human α2C receptor (Homo sapiens (Human), UniProt P18825). Briefly: Antagonism against adrenoreceptor α2C (luminescence, recombinant CHO cell line, noradrenaline stimulation). The format is cell-based. Conditions: 20 nM noradrenaline. The procedure:
B-1a) Antagonism Against Adrenoreceptors
Antagonism against the adrenoreceptor α1A was tested using a recombinant human α1A receptor CHO cell line which additionally also recombinantly expresses mtAeq (mitochondrial aequorin). Antagonism against the adrenoreceptor α2A was tested using a recombinant human α2A-Gα16 receptor fusion protein CHO cell line (PerkinElmer Life Sciences) which additionally also recombinantly expresses mtAeq. Antagonism against the adrenoreceptor α2B was tested using a recombinant human α2B receptor CHO cell line (PerkinElmer Life Sciences) which additionally also recombinantly expresses mtAeq. Antagonism against the adrenoreceptor α2C was tested using a recombinant human α2C receptor CHO cell line which additionally also recombinantly expresses a chimaric G protein (Gαqi3) and mtOb (mitochondrial obelin).
The cells were cultivated at 37° C. and 5% CO2 in Dulbecco's modified Eagle's Medium/NUT mix F12 with L-glutamine which additionally contains 10% (v/v) inactivated foetal calf serum, 1 mM sodium pyruvate, 0.9 mM sodium bicarbonate, 50 U/ml penicillin, 50 μg/ml streptomycin, 2.5 μg/ml amphotericin B and 1 mg/ml Geneticin. The cells were passaged with enzyme-free Hank's-based cell dissociation buffer. All cell culture reagents used were from Invitrogen (Carlsbad, USA).
Luminescence measurements were carried out on white 384-well microtitre plates. 2000 cells/well were plated in a volume of 25 μl and cultivated for one day at 30° C. and 5% CO2 in cell culture medium with coelenterazine (α2A and α2B: 5 μg/ml; α1a/c and α2C: 2.5 μg/ml). Serial dilutions of the test substances (10 μl) were added to the cells. After 5 minutes, noradrenaline was added to the cells (35 μl; final concentrations: 20 nM (α1a/c, and α2C) or 200 nM (α2A and α2B)), and the emitted light was measured for 50 seconds using a CCD (charge-coupled device) camera (Hamamatsu Corporation, Shizuoka, Japan) in a light-tight box. The test substances were tested up to a maximum concentration of […] The IC50 values were calculated from the appropriate dose-response curves.

Data set [2] relates to diabetic (ZDFfa/fa) and healthy rats (Wistar). Briefly: Assay of perfusion-enhancing substances (microcirculation), laser doppler probe at the paw. It is filed as in vivo, rat. As to conditions: single oral dose; for MED skin temperature: minimum effective dose for significant increase of skin temperature (ttest); for MED microcirculation: minimum effective dose with significantly improved microcirculation vs placebo; for MED microcirculation / factor by which microcirculation is improved at MED compared to placebo: 30 min after administration; for factor by which microcirculation is improved at MED compared to placebo: at the MED. The text has this:
B-2e) Assay of Perfusion-Enhancing Substances (Microcirculation)
In diabetic (ZDFfa/fa) and healthy rats (Wistar), a laser doppler probe was fastened under anaesthesia conditions (isoflurane anaesthesia) at the sole of the paw for measuring cutaneous microcirculation. The test animals were once treated orally with the test substances. During the experiment, microperfusion and temperature of the lower extremities were documented continuously. Here, a temperature-sensitive laser doppler probe (Periflux, O2C) was fastened with adhesive to the paws of the animals, allowing the measurement of microperfusion and skin temperature. The microcirculation measurement values were measured on both paws 30 min after oral administration of the test substance. […] Also stated is the MED for the significant increase of skin temperature (ttest).
Microcirculation data for adrenoreceptor α2c antagonist of Example 8 and for the comparative substance ORM12741, an AR α2c antagonist from Orion, are shown in Table 2: […]

Data set [3] has as its system conscious female Wistar rats. As to the kind of experiment: Radiotelemetric measurement of blood pressure and heart rate of conscious rats. The format is in vivo, rat. From the text: B-2l) Radiotelemetric Measurement of Blood Pressure and Heart Rate of Conscious Rats
A commercially available telemetry system from Data Sciences International DSI, USA, was employed for the measurements on conscious rats described below. The system consists of 3 main components: (1) implantable transmitters (Physiotel® telemetry transmitter), (2) receivers (Physiotel® receiver), which are linked via a multiplexer (DSI Data Exchange Matrix) to a (3) data acquisition computer. The telemetry system makes it possible to continuously record blood pressure, heart rate and body motion of conscious animals in their usual habitat.
The studies were conducted on adult female Wistar rats with a body weight of >200 g. After transmitter implantation, the experimental animals were housed singly in type III Makrolon® cages. They had free access to standard feed and water. The day/night rhythm in the test laboratory was set by changing the illumination of the room.
The telemetry transmitters used (PA-C40, DSI) were surgically implanted under aseptic conditions in the experimental animals at least 14 days before the first experimental use. […]
Each of the instrumented rats living in the system was assigned a separate receiving antenna (RPC-1 Receiver, DSI). […] The signals emitted were detected online by a data acquisition system (Dataquest™ A.R.T. for Windows, DSI) and processed accordingly.
In the standard procedure, the following were measured for 10-second periods in each case: (1) systolic blood pressure (SBP), (2) diastolic blood pressure (DBP), (3) mean arterial pressure (MAP) and (4) heart rate (HR) and (5) activity (ACT). These parameters were measured over 24 hours after administration.
The acquisition of measurements was repeated under computer control at 5-minute intervals. The source data obtained as absolute values were corrected in the diagram with the currently measured barometric pressure (Ambient Pressure Reference Monitor, APR-1, DSI). […]

The structures appear in SMILES notation. A value given as a limit tells only on which side of the number the result lay.

Chain of human α2C receptor (P18825 whole entry): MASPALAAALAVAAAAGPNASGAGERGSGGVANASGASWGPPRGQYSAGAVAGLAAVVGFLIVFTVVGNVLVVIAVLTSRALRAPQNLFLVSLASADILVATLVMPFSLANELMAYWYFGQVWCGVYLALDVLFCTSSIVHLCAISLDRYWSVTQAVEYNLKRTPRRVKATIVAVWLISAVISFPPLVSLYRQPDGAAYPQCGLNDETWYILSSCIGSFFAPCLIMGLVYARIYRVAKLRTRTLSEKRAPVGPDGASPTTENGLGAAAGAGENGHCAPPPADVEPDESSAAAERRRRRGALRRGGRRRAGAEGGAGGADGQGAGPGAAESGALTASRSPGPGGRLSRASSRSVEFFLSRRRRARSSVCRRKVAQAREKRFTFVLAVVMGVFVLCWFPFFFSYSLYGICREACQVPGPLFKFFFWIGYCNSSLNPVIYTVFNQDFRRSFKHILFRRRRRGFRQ

In the case of `COCCNc1ccc(C(=O)N2CCC(N3CCc4ccccc4C3)CC2)cn1` [Example 1, [4-(3,4-Dihydroisoquinolin-2-(1H)-yl)piperidin-1-yl]{6-[(2-methoxyethyl)amino]pyridin-3-yl}-methanone], the IC50 in data set [1] was 22 nM. Besides, in data set [2], the MED skin temperature worked out at 1 mg/kg, the MED microcirculation was determined as 1 mg/kg and the “factor by which microcirculation is improved at MED compared to placebo” value (from here on “factor … compared to placebo”) was determined as 1.8 ×.

As for `COCCNc1ccc(C(=O)N2CCC(N3CCc4ccc(F)cc4C3)CC2)cn1` [Example 2, [4-(7-Fluoro-3,4-dihydroisoquinolin-2(1H)-yl)piperidin-1-yl]{6-[(2-methoxyethyl)amino]pyridin-3-yl}methanone], the IC50 in data set [1] came to 13 nM.

With `O=C(c1ccc(N2CCOCC2)nc1)N1CCC(N2CCc3ccccc3C2)CC1` [Example 3, [4-(3,4-Dihydroisoquinolin-2(1H)-yl)piperidin-1-yl][6-(morpholin-4-yl)pyridin-3-yl]methanone], in data set [1], the half-maximal inhibitory concentration (IC50) amounted to 9 nM.

Take `O=C(c1ccc(N2CCS(=O)(=O)CC2)nc1)N1CCC(N2CCc3ccccc3C2)CC1` [Example 4, [4-(3,4-Dihydroisoquinolin-2(1H)-yl)piperidin-1-yl][6-(1,1-dioxidothiomorpholin-4-yl)pyridin-3-yl]methanone]: the half-maximal inhibitory concentration (IC50) in data set [1] was 24 nM. In data set [2], the MED skin temperature is given as 0.1 mg/kg, the MED microcirculation came out at 0.1 mg/kg and the “factor … compared to placebo” value was 2.4 ×. For the same molecule, the “haemodynamic effects (blood pressure, heart rate)” value in data set [3] (conscious rats, oral administration, 24 hours telemetry) was “no haemodynamic effects”. Moreover, the heart rate result in data set [3] (oral dose of 3 and 10 mg/kg) is recorded as “slight transient increase in the heart rate”.

As to `COC[C@H]1CCCN1c1ccc(C(=O)N2CCC(N3CCc4ccccc4C3)CC2)cn1` [Example 5, [4-(3,4-Dihydroisoquinolin-2(1H)-yl)piperidin-1-yl]{6-[(2R)-2-(methoxymethyl)pyrrolidin-1-yl]pyridin-3-yl}methanone], the half-maximal inhibitory concentration (IC50) in data set [1] was 65 nM.

Take `O=C(O)[C@H]1CCCN1c1ccc(C(=O)N2CCC(N3CCc4ccccc4C3)CC2)cn1` [Example 6, 1-(5-{[4-(3,4-Dihydroisoquinolin-2(1H)-yl)piperidin-1-yl]carbonyl}pyridin-2-yl)-D-proline]: the IC50 in data set [1] is 27 nM. Besides, in data set [2], the MED skin temperature result is recorded as “no effect”, the MED microcirculation result is reported as “no effect” and the “factor … compared to placebo” value was no more than 1.3 ×.

Take `CC[C@@H](CO)Nc1ccc(C(=O)N2CCC(N3CCc4ccccc4C3)CC2)cn1` [Example 7, [4-(3,4-Dihydroisoquinolin-2(1H)-yl)piperidin-1-yl](6-{[(2S)-1-hydroxybutan-2-yl]amino}pyridin-3-yl)methanone]: the half-maximal inhibitory concentration (IC50) in data set [1] worked out at 21 nM.

Turning to `COC1CCN(c2ccc(C(=O)N3CCC(N4CCc5cc(F)ccc5C4)CC3)cn2)C1` (centres unmarked) [Example 8, [4-(6-Fluoro-3,4-dihydroisoquinolin-2(1H)-yl)piperidin-1-yl][6-(3-methoxypyrrolidin-1-yl)pyridin-3-yl]methanone], the IC50 in data set [1] stood at 58 nM.

With `COc1ccc2c(c1)CCN(C1CCN(C(=O)c3ccc(N4CCC(OC)C4)nc3)CC1)C2` (centres unmarked) [Example 9, [4-(6-Methoxy-3,4-dihydroisoquinolin-2(1H)-yl)piperidin-1-yl][6-(3-methoxypyrrolidin-1-yl)pyridin-3-yl]methanone], the IC50 in data set [1] is 11 nM.

Turning to `O=C(c1ccc(N2CC3(COC3)C2)nc1)N1CCC(N2CCc3ccccc3C2)CC1` [Example 10, [4-(3,4-Dihydroisoquinolin-2(1H)-yl)piperidin-1-yl][6-(2-oxa-6-azaspiro[3.3]hept-6-yl)pyridin-3-yl]methanone], in data set [2], the MED skin temperature is on record as 0.03 mg/kg, the MED microcirculation worked out at 0.03 mg/kg and the “factor … compared to placebo” value is recorded as 2.1 ×.

For `CC1CN(c2ccc(C(=O)N3CCC(N4CCc5ccccc5C4)CC3)cn2)CC(C)O1` (centres unmarked) [Example 11, [4-(3,4-Dihydroisoquinolin-2(1H)-yl)piperidin-1-yl][6-(2,6-dimethylmorpholin-4-yl)pyridin-3-yl]methanone], in data set [1], the half-maximal inhibitory concentration (IC50) stood at 11 nM.

With `CC1CN(c2ccc(C(=O)N3CCC(N4CCc5ccccc5C4)CC3)cn2)CC(C)O1` (centres unmarked) [Example 12, [4-(3,4-Dihydroisoquinolin-2(1H)-yl)piperidin-1-yl][6-(2,6-dimethylmorpholin-4-yl)pyridin-3-yl]methanone], in data set [1], the IC50 was determined as 21 nM.

`CC1(C)CN(c2ccc(C(=O)N3CCC(N4CCc5ccccc5C4)CC3)cn2)CCO1` [Example 13, [4-(3,4-Dihydroisoquinolin-2(1H)-yl)piperidin-1-yl][6-(2,2-dimethylmorpholin-4-yl)pyridin-3-yl]methanone]: in data set [1], the half-inhibitory concentration (IC50) came to 53 nM.

As to `O=C(c1ccc(N2CCOC(C(F)(F)F)C2)nc1)N1CCC(N2CCc3ccccc3C2)CC1` (centres unmarked) [Example 14, [4-(3,4-Dihydroisoquinolin-2(1H)-yl)piperidin-1-yl]{6-[2-(trifluoromethyl)morpholin-4-yl]pyridin-3-yl}methanone], the IC50 in data set [1] is 23 nM.

For `O=C(c1ccc(N2CC3(C2)CS(=O)(=O)C3)nc1)N1CCC(N2CCc3ccccc3C2)CC1` [Example 15, [4-(3,4-Dihydroisoquinolin-2(1H)-yl)piperidin-1-yl][6-(2,2-dioxido-2-thia-6-azaspiro[3.3]hept-6-yl)pyridin-3-yl]methanone], in data set [1], the half-maximal inhibitory concentration (IC50) was 53 nM.

For `COC[C@@]1(C)CCCN2CCc3c(oc4ccccc34)[C@@H]21` [ORM-12741, reference compound], in data set [2], the MED skin temperature worked out at 0.01 mg/kg, the MED microcirculation was found to be 0.1 mg/kg and the “factor … compared to placebo” value is listed as 1.9 ×. In addition, in data set [3] (10 mg/kg, oral), the blood pressure result was “additional reduction in blood pressure”.

(Values after patent US9624198B2, “Substituted piperidinyltetrahydroquinolines” (Bayer Pharma Aktiengesellschaft, priority 2013, dated 2017).)
